A word on the Vmax: it is the top rate of the reaction or transport when substrate is in excess. The term Km denotes the concentration of substrate that gives half-maximal velocity.

The record followed here is PMC4401096 (Scientific Reports, 2015).

Read-outs that look alike come from different tables or passages of the source.

For data set [1], the target named is T1, UGT1A4 (Homo sapiens, UniProt P22310).
T1 sequence (P22310 29-534): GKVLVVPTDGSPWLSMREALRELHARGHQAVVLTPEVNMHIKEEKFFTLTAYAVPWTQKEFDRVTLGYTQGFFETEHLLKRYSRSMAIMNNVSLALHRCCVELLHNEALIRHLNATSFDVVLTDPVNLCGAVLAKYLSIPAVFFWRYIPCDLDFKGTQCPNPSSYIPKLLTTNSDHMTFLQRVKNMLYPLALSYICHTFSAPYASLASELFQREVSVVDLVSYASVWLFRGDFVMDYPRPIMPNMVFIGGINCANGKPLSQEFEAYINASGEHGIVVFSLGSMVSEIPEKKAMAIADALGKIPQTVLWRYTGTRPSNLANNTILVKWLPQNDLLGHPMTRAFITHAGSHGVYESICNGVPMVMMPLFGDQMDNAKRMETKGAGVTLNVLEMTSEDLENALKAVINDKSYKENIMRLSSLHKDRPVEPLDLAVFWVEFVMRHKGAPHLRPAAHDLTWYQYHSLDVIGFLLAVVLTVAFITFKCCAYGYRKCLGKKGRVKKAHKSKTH
Procedure: (§1) All of the incubations were performed for 60 min using HLMs with a concentration of 0.3 mg of protein/mL, 0.05 mg of protein/mL for UGT1A3 and 0.25 mg of protein/mL for UGT1A4. Similarly, for the UGT1A4 isoform, hecogenin (1–80 μM) was used as a specific inhibitor to determine the differences of inhibition effects between HLMs and UGT1A4.

Data set [2] has as its target T2, UGT1A3 (Homo sapiens, UniProt P35503).
T2 sequence (P35503 29-534): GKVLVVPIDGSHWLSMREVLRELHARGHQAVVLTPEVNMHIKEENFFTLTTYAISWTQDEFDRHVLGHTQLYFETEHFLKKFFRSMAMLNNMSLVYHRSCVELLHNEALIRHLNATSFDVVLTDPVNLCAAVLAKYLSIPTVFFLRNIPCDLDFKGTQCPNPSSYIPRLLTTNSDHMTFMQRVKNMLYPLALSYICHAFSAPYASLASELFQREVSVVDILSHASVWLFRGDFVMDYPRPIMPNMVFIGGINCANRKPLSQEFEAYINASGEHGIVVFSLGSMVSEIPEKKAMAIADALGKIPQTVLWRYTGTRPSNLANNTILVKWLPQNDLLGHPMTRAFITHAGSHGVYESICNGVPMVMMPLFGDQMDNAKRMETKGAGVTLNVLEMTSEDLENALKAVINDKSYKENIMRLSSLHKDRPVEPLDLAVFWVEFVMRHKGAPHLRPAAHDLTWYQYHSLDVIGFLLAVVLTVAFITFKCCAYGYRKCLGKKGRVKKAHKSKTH
Procedure: as §1

For data set [3] the following is noted: M-2 (16-O-glucuronidation), HIMs.
Procedure: (§2) The standard incubation system for the UGT reaction included HLMs (5 mg of protein/mL), UDPGA (40 mM), Tris-HCl buffer (pH 7.4), MgCl2 (50 mM), 25 μg/mL alamethicin, and substrates in a final volume of 200 μL. The volume of organic solvent was less than 1%. After 60 min of incubation at 37°C, the reaction was terminated by adding 0.1 mL of methanol. The sample was then centrifuged at 20,000 g for 20 minutes to obtain the supernatant for LC-UV-ESI analysis.
(§3) To ensure that less than 10% of the substrate was metabolized in all incubations, different incubation times and protein concentration conditions were selected with 60 min of incubation and 0.15 to 0.75 mg of protein, to confirm the linear interval of metabolite turnover rates. The kinetic models used for analysis were Michaelis–Menten kinetics (eq. 1), biphasic kinetics (eq. 2) and inhibition kinetics (eq. 3)[32]. [drawing 1] [drawing 2] […] Ksi is the constant describing the substrate inhibition interaction. All of the incubations were performed in three independent experiments in duplicate. Kinetic constants were obtained using Origin 7.5 (OriginLab Corp., Northampton, MA) and were reported as the mean ± standard error (S.E.) of the parameter estimate.
The conditions of data set [4]: 3-O-Glucuronide (M-1), TLMs.
Procedure: as §2, §3
The conditions of data set [5]: HLMs.
Procedure: as §2, §3
For data set [6] the following is noted: MLMs.
Procedure: as §2, §3
For data set [7] the following is noted: RLMs.
Procedure: as §2, §3
For data set [8] the following is noted: 16-O-Glucuronide (M-2), PLMs.
The conditions of data set [9]: DLMs.
Procedure: as §2, §3
Data set [10] in a line: Species comparison of DACB glucuronidation in animal liver microsomes. Format: in vitro ADME. A general note: Liver microsomes are vesicles of endoplasmic reticulum, rich in cytochrome P450 enzymes.
[11] abbreviates: animal species liver microsomes.
Setting [12] is: liver microsomes of various species.

For `CN1CCN(CCCN2c3ccccc3Sc3ccc(C(F)(F)F)cc32)CC1` [TFP, trifluoperazine], the “inhibition of the 3-O-glucuronidation of DACB” value in [1] was “significantly inhibit”.
Regarding hecogenin, the “inhibition of the 3-O-glucuronidation of DACB” value in data set [1] is “significantly inhibit”. Further, the “IC50 values for M-1 formation, UGT1A4 compared with HLMs” value in data set [1] (hecogenin 1–80 μM, UGT1A4 and HLMs) was “similar”.
Regarding `CC1(C)[C@@H](O)CC[C@]2(C)[C@H]3C(=O)C=C4[C@@H]5C[C@@](C)(C(=O)O)CC[C@]5(C)CC[C@@]4(C)[C@]3(C)CC[C@@H]12` [glycyrrhetinic acid], the “inhibition of the formation of M-2 (16-O-glucuronate)” value in data set [2] is reported as “significantly inhibited”. In addition, the “IC50 values for M-2 formation, UGT1A3 compared with HLMs” value in data set [2] (glycyrrhetinic acid 0–60 μM, UGT1A3 and HLMs) is given as “equal”.
For the molecule `C[C@]12CC[C@H](O)C[C@H]1CC[C@@H]1[C@@H]2CC[C@]2(C)[C@@H](c3ccc(=O)oc3)[C@@H](O)[C@H]3O[C@]132` [DACB, desacetylcinobufagin], the Vmax in [3] was determined as 0.007 ± 0.002 nmol/min/mg; in data set [4] it was 0.106 ± 0.002 nmol/min/mg; in data set [5] (M-1 (3-O-glucuronidation)), 0.061 ± 0.002 nmol/min/mg; in [5] (M-2 (16-O-glucuronidation)), 0.074 ± 0.004 nmol/min/mg; in data set [6] (3-O-Glucuronide (M-1)), 0.174 ± 0.008 nmol/min/mg; in data set [6] (16-O-Glucuronide (M-2)) it was 0.288 ± 0.002 nmol/min/mg. Also, the Vmax was 0.107 ± 0.002 nmol/min/mg in data set [7] (3-O-Glucuronide (M-1)); 0.018 ± 0.001 nmol/min/mg in data set [7] (16-O-Glucuronide (M-2)); 0.032 ± 0.001 nmol/min/mg in [8]; 0.005 ± 0.001 nmol/min/mg in data set [9] (3-O-Glucuronide (M-1), biphasic kinetics, first line); 0.009 ± 0.001 nmol/min/mg in data set [9] (3-O-Glucuronide (M-1), biphasic kinetics, second line); 0.111 ± 0.010 nmol/min/mg in data set [9] (16-O-Glucuronide (M-2)). For the same molecule, the Km in data set [4] was 63.6 ± 5.33 µM. Besides, the “order of CLint activities of UGT1A3, M-2 formation” value in data set [10] (setting [11]) was “MLM > RLM > PLM > DLM”. For the same molecule, the “order of UGT1A4 activities by CLint values, M-1 formation” value in data set [10] (setting [11]) is “Rabbit > Monkey > Mouse > Dog > Pig”. For the same molecule, the “occurrence of 3-O-glucuronidation in species” value in data set [10] (setting [12]) is “occurs in DLMs, MLMs, MsLMs, RLMs and TLMs”. Further, the “occurrence of 16-O-glucuronidation in species” value in [10] (setting [12]) was “can occur in all species except RtLMs”.
